Measurements published in ChEMBL document CHEMBL3632579, “Hybrids from 4-anilinoquinazoline and hydroxamic acid as dual inhibitors of vascular endothelial growth factor receptor-2 and histone deacetylase” (Bioorg Med Chem Lett, 2015).

What was measured:
[1] = target: Vascular endothelial growth factor receptor 2 (Homo sapiens, UniProt P35968); experiment: Inhibition VEGFR2 (unknown origin) for 30 mins by ELISA
[2] = test system: MCF7; experiment: Antiproliferative activity against human MCF7 cells after 48 hrs by MTT assay; type: functional, cell-based; details: MCF7, 48 h
[3] = target: Histone deacetylase; experiment: Inhibition of human HDAC in HeLa cell nuclear extract by fluorometric assay using Fluor de Lys substrate; type: protein assay
[4] = target: T1, Histone deacetylase 8 (Homo sapiens, UniProt Q9BY41); experiment: Inhibition of human recombinant HDAC8 by fluorometric assay using Fluor de Lys substrate
T1 sequence (Q9BY41 whole entry): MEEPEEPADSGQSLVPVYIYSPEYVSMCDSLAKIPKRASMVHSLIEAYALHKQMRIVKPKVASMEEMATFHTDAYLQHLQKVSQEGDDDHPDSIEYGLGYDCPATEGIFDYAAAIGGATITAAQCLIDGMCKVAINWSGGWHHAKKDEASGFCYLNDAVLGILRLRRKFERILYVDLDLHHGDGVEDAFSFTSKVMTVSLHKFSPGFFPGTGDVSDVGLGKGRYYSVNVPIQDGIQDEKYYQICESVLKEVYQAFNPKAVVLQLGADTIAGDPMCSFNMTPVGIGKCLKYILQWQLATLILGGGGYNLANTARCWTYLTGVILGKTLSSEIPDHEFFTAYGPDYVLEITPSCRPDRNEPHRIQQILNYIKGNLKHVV

[5] = test system: HCT-116; experiment: Antiproliferative activity against human HCT116 cells after 48 hrs by MTT assay; type: functional, cell-based; details: HCT-116, 48 h
[6] = target: Histone deacetylase 2 (Homo sapiens, UniProt Q92769); experiment: Inhibition of human recombinant HDAC2 by fluorometric assay using Fluor de Lys substrate
[7] = test system: A549; experiment: Antiproliferative activity against human A549 cells after 48 hrs by MTT assay; type: functional, cell-based; details: A549, 48 h
[8] = test system: HepG2; experiment: Antiproliferative activity against human HepG2 cells after 48 hrs by MTT assay; type: functional, cell-based; details: HepG2, 48 h
[9] = target: T2, Protein deacetylase HDAC6 (Homo sapiens, UniProt Q9UBN7); experiment: Inhibition of human recombinant HDAC6 by fluorometric assay using Fluor de Lys substrate
T2 sequence (Q9UBN7 whole entry): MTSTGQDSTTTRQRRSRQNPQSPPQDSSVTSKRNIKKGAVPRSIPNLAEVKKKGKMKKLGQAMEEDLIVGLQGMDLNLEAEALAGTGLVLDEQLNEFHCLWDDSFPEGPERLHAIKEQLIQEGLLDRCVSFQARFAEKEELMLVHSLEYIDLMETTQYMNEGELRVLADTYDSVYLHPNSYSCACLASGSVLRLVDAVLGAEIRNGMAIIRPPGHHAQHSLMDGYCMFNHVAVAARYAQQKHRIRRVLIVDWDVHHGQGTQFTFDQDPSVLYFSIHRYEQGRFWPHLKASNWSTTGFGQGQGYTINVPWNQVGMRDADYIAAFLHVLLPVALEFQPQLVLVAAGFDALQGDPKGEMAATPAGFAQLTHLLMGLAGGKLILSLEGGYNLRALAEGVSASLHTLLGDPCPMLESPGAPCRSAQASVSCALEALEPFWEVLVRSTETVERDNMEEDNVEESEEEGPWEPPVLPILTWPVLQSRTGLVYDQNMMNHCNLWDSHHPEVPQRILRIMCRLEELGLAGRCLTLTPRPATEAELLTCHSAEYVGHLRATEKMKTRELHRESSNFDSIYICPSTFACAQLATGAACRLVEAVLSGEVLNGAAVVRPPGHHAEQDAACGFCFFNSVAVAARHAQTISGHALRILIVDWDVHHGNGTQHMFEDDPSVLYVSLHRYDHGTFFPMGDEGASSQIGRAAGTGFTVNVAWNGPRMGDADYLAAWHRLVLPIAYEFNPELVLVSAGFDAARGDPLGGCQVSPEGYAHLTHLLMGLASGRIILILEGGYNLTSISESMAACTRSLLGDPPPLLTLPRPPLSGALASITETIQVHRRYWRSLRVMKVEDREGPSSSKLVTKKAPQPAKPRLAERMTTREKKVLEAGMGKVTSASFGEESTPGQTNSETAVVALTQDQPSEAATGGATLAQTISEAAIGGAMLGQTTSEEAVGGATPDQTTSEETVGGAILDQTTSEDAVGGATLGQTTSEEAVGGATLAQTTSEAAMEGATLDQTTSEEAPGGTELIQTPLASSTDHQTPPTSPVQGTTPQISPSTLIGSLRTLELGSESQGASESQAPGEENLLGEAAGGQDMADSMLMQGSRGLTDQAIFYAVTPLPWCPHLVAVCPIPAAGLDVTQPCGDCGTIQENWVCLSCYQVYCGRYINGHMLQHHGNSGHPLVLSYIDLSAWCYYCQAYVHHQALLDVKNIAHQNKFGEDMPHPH

[10] = target: Histone deacetylase 1 (Homo sapiens, UniProt Q13547); experiment: Inhibition of human recombinant HDAC1 by fluorometric assay using Fluor de Lys substrate
Histone deacetylase 1, sequence (Q13547 whole entry): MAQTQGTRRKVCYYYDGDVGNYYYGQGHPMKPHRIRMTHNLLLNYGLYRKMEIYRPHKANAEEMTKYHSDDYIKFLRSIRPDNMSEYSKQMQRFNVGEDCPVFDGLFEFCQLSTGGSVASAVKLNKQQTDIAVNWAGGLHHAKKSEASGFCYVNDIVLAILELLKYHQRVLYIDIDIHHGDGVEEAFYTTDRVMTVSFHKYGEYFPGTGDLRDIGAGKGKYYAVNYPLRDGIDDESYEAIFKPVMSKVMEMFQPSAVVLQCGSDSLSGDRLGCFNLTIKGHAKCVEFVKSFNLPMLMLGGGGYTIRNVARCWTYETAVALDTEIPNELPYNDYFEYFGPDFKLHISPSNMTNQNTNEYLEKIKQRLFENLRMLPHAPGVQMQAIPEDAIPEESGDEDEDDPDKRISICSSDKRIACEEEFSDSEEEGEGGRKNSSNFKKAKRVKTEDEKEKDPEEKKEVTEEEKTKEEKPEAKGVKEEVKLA

Vascular endothelial growth factor receptor 2, sequence (P35968 whole entry): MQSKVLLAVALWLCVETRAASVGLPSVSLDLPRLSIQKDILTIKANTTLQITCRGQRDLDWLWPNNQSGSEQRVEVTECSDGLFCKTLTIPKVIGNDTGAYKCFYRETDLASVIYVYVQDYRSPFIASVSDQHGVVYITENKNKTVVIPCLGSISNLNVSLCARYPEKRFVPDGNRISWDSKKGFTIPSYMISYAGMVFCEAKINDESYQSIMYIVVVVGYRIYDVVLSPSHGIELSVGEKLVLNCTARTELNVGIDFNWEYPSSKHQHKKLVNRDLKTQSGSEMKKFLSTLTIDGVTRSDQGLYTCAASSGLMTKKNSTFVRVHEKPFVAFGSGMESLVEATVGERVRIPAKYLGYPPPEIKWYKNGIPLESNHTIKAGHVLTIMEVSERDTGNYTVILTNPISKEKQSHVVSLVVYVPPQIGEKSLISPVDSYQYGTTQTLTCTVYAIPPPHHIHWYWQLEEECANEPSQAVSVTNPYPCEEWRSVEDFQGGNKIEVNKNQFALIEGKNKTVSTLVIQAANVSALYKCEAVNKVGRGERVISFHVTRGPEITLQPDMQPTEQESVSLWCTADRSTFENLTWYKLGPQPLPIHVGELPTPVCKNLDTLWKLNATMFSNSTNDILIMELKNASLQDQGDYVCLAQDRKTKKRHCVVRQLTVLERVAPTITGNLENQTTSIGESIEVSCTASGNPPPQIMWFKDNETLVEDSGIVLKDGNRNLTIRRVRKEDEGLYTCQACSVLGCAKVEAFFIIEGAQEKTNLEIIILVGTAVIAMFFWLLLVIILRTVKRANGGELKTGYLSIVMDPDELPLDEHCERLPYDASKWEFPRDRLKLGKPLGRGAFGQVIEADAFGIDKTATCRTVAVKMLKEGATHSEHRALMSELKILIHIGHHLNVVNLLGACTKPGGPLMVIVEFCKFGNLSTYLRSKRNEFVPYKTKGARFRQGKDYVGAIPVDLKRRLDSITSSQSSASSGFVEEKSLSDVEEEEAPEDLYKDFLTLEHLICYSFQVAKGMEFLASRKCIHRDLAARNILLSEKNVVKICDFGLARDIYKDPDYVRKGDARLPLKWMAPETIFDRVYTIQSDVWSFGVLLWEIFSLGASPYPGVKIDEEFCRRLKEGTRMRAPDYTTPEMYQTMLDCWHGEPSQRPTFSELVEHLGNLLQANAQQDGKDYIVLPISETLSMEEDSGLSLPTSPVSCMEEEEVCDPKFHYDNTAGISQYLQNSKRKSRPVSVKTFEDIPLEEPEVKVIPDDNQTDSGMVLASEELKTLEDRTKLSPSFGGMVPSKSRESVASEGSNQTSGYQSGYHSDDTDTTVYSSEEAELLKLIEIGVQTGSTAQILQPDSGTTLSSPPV
Histone deacetylase 2, sequence (Q92769 whole entry): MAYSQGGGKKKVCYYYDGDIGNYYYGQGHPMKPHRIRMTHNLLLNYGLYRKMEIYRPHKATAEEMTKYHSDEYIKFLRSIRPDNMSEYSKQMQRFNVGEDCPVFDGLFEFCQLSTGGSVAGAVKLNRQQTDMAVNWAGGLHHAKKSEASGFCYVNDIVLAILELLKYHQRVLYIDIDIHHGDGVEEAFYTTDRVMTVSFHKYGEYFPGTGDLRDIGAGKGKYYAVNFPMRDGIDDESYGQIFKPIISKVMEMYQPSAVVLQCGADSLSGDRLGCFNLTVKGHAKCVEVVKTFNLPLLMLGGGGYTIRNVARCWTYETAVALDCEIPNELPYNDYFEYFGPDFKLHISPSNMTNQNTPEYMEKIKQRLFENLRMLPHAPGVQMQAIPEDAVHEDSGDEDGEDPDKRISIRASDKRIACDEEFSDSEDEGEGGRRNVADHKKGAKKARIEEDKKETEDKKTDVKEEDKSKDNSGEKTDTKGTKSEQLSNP

| SMILES | IC50 [1] | IC50 [2] | IC50 [3] | other results |
| --- | --- | --- | --- | --- |
| COc1cc2ncnc(Nc3cccc(Cl)c3)c2cc1OCCCCC(=O)NO | 613 nM | 8600 nM | 17 nM | – |
| COc1cc2ncnc(Nc3cc(Cl)ccc3Cl)c2cc1OCCCCCC(=O)NO | 2450 nM | 4000 nM | 8.4 nM | – |
| COc1cc2ncnc(Nc3cccc(Br)c3)c2cc1OCCCCCC(=O)NO | 462 nM | 2800 nM | 4.5 nM | – |
| COc1cc2ncnc(Nc3cccc(Br)c3)c2cc1OCCC(=O)NO | 625 nM | > 100000 nM | 531 nM | – |
| COc1cc2ncnc(Nc3ccc(Cl)cc3Cl)c2cc1OCCCCCC(=O)NO | 84 nM | 1200 nM | 2.8 nM | IC50 [4]: 5.2 nM; IC50 [5]: 1800 nM; IC50 [6]: 6.8 nM; IC50 [7]: 5400 nM; IC50 [8]: 2700 nM; IC50 [9]: 25.5 nM; IC50 [10]: 3.5 nM |
| COc1cc2ncnc(Nc3cc(Cl)ccc3Cl)c2cc1OCCCC(=O)NO | 2140 nM | 44500 nM | 57 nM | – |
| COc1cc2ncnc(Nc3cccc(Br)c3)c2cc1OCCCCC(=O)NO | 415 nM | 8500 nM | 15 nM | – |
| COc1cc2ncnc(Nc3cccc(Br)c3)c2cc1OCCCC(=O)NO | 434 nM | 68400 nM | 97 nM | – |
| COc1cc2ncnc(Nc3ccc(Cl)cc3Cl)c2cc1OCCCCC(=O)NO | 115 nM | 6400 nM | 14 nM | – |
| COc1cc2/c(=N/c3ccc(Br)cc3F)nc[nH]c2cc1OCC1CCN(C)CC1 [VANDETANIB] | – | 18500 nM | > 10000 nM | – |
| COc1cc2ncnc(Nc3cc(Cl)ccc3Cl)c2cc1OCCCCC(=O)NO | 5200 nM | 13700 nM | 21 nM | – |
| COc1cc2ncnc(Nc3cccc(Cl)c3)c2cc1OCCCC(=O)NO | 352 nM | 65200 nM | 121 nM | – |
| O=C(CCCCCCC(=O)Nc1ccccc1)NO [VORINOSTAT] | > 10000 nM | – | – | – |
| COc1cc2ncnc(Nc3ccc(Cl)cc3Cl)c2cc1OCCC(=O)NO | 370 nM | 95000 nM | 215 nM | – |
| COc1cc2ncnc(Nc3cccc(Cl)c3)c2cc1OCCC(=O)NO | 476 nM | > 100000 nM | 645 nM | – |
| COc1cc2ncnc(Nc3ccc(Cl)cc3Cl)c2cc1OCCCC(=O)NO | 138 nM | 56800 nM | 86 nM | – |
| COc1cc2ncnc(Nc3cccc(Cl)c3)c2cc1OCCCCCC(=O)NO | 501 nM | 3200 nM | 5.4 nM | – |
| COc1cc2ncnc(Nc3cc(Cl)ccc3Cl)c2cc1OCCC(=O)NO | 1260 nM | > 100000 nM | 348 nM | – |
